Test results: ChEMBL document CHEMBL1147145, “Scaffold targeting drug-resistant colon cancers” (J Med Chem, 2007)
Non-standard residues stand in square brackets, D forms with d. Residues, ends and D or L forms follow the SMILES beside them. *: point of attachment. NMeF = CN[C@@H](Cc1ccccc1)C(=O)O; Cha = N[C@@H](CC1CCCCC1)C(=O)O; NMeL = CN[C@@H](CC(C)C)C(=O)O; dNMeL = CN[C@H](CC(C)C)C(=O)O; dNMeV = CN[C@@H](C(=O)O)C(C)C; Cbz = O=C(OCc1ccccc1)*; Sar = CNCC(=O)O

Assays:
HCT-116 [1] = assay: Growth inhibition in HCT116 cells assessed as inhibition of [3H]thymidine incorporation at 1 uM relative to control; assay type: functional; settings: Homo sapiens, read-out: TGI
HCT-15 [2] = assay: Growth inhibition in HCT15 cells assessed as inhibition of [3H]thymidine incorporation at 1 uM relative to control; assay type: functional; settings: Homo sapiens, read-out: TGI
HCT-15 [3] = assay: Growth inhibition in HCT15 cells assessed as inhibition of [3H]thymidine incorporation; assay type: functional, cell-based; settings: Homo sapiens
[4] = Growth inhibition in WS1 cells assessed as inhibition of [3H]thymidine incorporation; assay type: functional, cell-based; settings: Homo sapiens
HCT-116 [5] = assay: Growth inhibition in HCT116 cells assessed as inhibition of [3H]thymidine incorporation; assay type: functional, cell-based; settings: Homo sapiens

CC(C)C[C@@H]1NC(=O)[C@H](Cc2ccccc2)NC(=O)[C@H](CC(C)C)NC(=O)[C@H](C(C)C)N(C)C(=O)[C@H](CC(C)C)NC1=O
inhibition of growth at 1 µM (HCT-116 [1]): 6%
inhibition of growth at 1 µM (HCT-15 [2]): 23%

CC(C)C[C@@H]1NC(=O)[C@H](Cc2ccccc2)NC(=O)[C@@H](Cc2ccccc2)N(C)C(=O)[C@H](C(C)C)NC(=O)[C@H](CC(C)C)NC1=O
IC50 (HCT-15 [3]): 0.65 µM
inhibition of growth at 1 µM (HCT-116 [1]): 59%
IC50 [4]: 200 µM
inhibition of growth at 1 µM (HCT-15 [2]): 57%

CC(C)C[C@@H]1NC(=O)[C@H](Cc2ccccc2)NC(=O)[C@@H](Cc2ccccc2)NC(=O)[C@H](C(C)C)NC(=O)[C@H](CC(C)C)NC1=O
IC50 (HCT-15 [3]): 300 µM
inhibition of growth at 1 µM (HCT-116 [1]): 35%
IC50 (HCT-116 [5]): 200 µM
inhibition of growth at 1 µM (HCT-15 [2]): 14%

CC(C)C[C@@H]1NC(=O)[C@@H](Cc2ccccc2)NC(=O)[C@@H](CC(C)C)NC(=O)[C@@H](C(C)C)N(C)C(=O)[C@H](CC(C)C)NC1=O
inhibition of growth at 1 µM (HCT-116 [1]): 44%
inhibition of growth at 1 µM (HCT-15 [2]): 35%

CC(C)C[C@@H]1NC(=O)[C@@H](CC(C)C)N(C)C(=O)[C@H](Cc2ccccc2)NC(=O)[C@H](C(C)C)NC(=O)[C@H](C(C)C)NC1=O
IC50 (HCT-15 [3]): 1.2 µM
inhibition of growth at 1 µM (HCT-116 [1]): 42%
IC50 [4]: 200 µM
IC50 (HCT-116 [5]): 2 µM
inhibition of growth at 1 µM (HCT-15 [2]): 48%

CC(C)C[C@@H]1NC(=O)[C@H](C(C)C)NC(=O)[C@H](CC(C)C)N(C)C(=O)[C@H](CC(C)C)N(C)C(=O)[C@H](Cc2ccccc2)NC1=O
inhibition of growth at 1 µM (HCT-116 [1]): 30%
inhibition of growth at 1 µM (HCT-15 [2]): 57%

CC(C)C[C@@H]1NC(=O)[C@@H](C(C)C)N(C)C(=O)[C@H](CC(C)C)NC(=O)[C@@H](CC(C)C)NC(=O)[C@H](Cc2ccccc2)NC1=O
inhibition of growth at 1 µM (HCT-116 [1]): 0%
inhibition of growth at 1 µM (HCT-15 [2]): 0%

CC(C)C[C@@H]1NC(=O)[C@H](Cc2ccccc2)NC(=O)[C@H](CC(C)C)NC(=O)[C@@H](C(C)C)N(C)C(=O)[C@H](CC(C)C)NC1=O
inhibition of growth at 1 µM (HCT-116 [1]): 19%
inhibition of growth at 1 µM (HCT-15 [2]): 21%

CC(C)C[C@@H]1NC(=O)[C@H](C(C)C)NC(=O)[C@H](CC(C)C)N(C)C(=O)[C@@H](CC(C)C)N(C)C(=O)[C@H](Cc2ccccc2)NC1=O
inhibition of growth at 1 µM (HCT-116 [1]): 23%
inhibition of growth at 1 µM (HCT-15 [2]): 30%

CC(C)C[C@@H]1NC(=O)[C@H](Cc2ccccc2)NC(=O)[C@H](CC(C)C)NC(=O)[C@@H](C(C)C)NC(=O)[C@H](CCCCNC(=O)OCc2ccccc2)NC1=O (cyclo(FLK(Cbz)[dV]L))
inhibition of growth at 1 µM (HCT-116 [1]): 16%
inhibition of growth at 1 µM (HCT-15 [2]): 3%

CC(C)C[C@@H]1NC(=O)[C@H](Cc2ccccc2)NC(=O)[C@H](CC(C)C)NC(=O)[C@@H](C(C)C)NC(=O)[C@H](CCCCN)NC1=O (cyclo(FLK[dV]L))
inhibition of growth at 1 µM (HCT-116 [1]): 11%
inhibition of growth at 1 µM (HCT-15 [2]): 18%

CC(C)C[C@@H]1NC(=O)[C@H](Cc2ccccc2)NC(=O)[C@H](CC(C)C)NC(=O)[C@H](C(C)C)NC(=O)[C@H](CC(C)C)NC1=O (cyclo(FLLVL))
IC50 (HCT-15 [3]): 21 µM
inhibition of growth at 1 µM (HCT-116 [1]): 28%
IC50 [4]: 300 µM
inhibition of growth at 1 µM (HCT-15 [2]): 10%

CC(C)C[C@@H]1NC(=O)[C@H](Cc2ccccc2)NC(=O)[C@@H](CC(C)C)NC(=O)[C@H](C(C)C)NC(=O)[C@H](CC(C)C)NC1=O (cyclo(FLLV[dL]))
inhibition of growth at 1 µM (HCT-116 [1]): 18%
inhibition of growth at 1 µM (HCT-15 [2]): 10%

CC(C)C[C@@H]1NC(=O)[C@H](Cc2ccccc2)NC(=O)[C@@H](CC(C)C)N(C)C(=O)[C@H](C(C)C)NC(=O)[C@H](CC(C)C)NC1=O (cyclo(FLLV[dNMeL]))
inhibition of growth at 1 µM (HCT-116 [1]): 25%
inhibition of growth at 1 µM (HCT-15 [2]): 33%

CC(C)C[C@@H]1NC(=O)[C@H](Cc2ccccc2)NC(=O)[C@H](CC(C)C)NC(=O)[C@@H](Cc2ccccc2)NC(=O)[C@H](CC(C)C)NC1=O (cyclo(FLL[dF]L))
inhibition of growth at 1 µM (HCT-116 [1]): 11%
inhibition of growth at 1 µM (HCT-15 [2]): 11%

CC(C)C[C@@H]1NC(=O)[C@H](Cc2ccccc2)NC(=O)[C@H](CC(C)C)NC(=O)[C@@H](CO)NC(=O)[C@H](CC(C)C)NC1=O (cyclo(FLL[dS]L))
inhibition of growth at 1 µM (HCT-116 [1]): 0%
inhibition of growth at 1 µM (HCT-15 [2]): 11%

CC(C)C[C@@H]1NC(=O)[C@H](Cc2ccccc2)NC(=O)[C@H](CC(C)C)NC(=O)[C@@H](C(C)C)NC(=O)[C@H](CC(C)C)NC1=O (cyclo(FLL[dV]L))
inhibition of growth at 1 µM (HCT-116 [1]): 48%
IC50 [4]: 20 µM
inhibition of growth at 1 µM (HCT-15 [2]): 48%

CC(C)C[C@@H]1NC(=O)[C@H](Cc2ccccc2)NC(=O)[C@@H](CC(C)C)NC(=O)[C@@H](C(C)C)NC(=O)[C@H](CC(C)C)NC1=O (cyclo(FLL[dV][dL]))
inhibition of growth at 1 µM (HCT-116 [1]): 41%
inhibition of growth at 1 µM (HCT-15 [2]): 21%

CC(C)C[C@@H]1NC(=O)[C@H](Cc2ccccc2)NC(=O)[C@H](CC(C)C)NC(=O)[C@H](C(C)C)NC(=O)[C@@H](CC(C)C)NC1=O (cyclo(FL[dL]VL))
inhibition of growth at 1 µM (HCT-116 [1]): 0%
inhibition of growth at 1 µM (HCT-15 [2]): 15%

CC(C)C[C@@H]1NC(=O)[C@H](C(C)C)NC(=O)[C@H](CC(C)C)NC(=O)[C@H](CC(C)C)N(C)C(=O)[C@H](Cc2ccccc2)NC1=O (cyclo(F[NMeL]LVL))
inhibition of growth at 1 µM (HCT-116 [1]): 59%
inhibition of growth at 1 µM (HCT-15 [2]): 35%

CC(C)C[C@@H]1NC(=O)[C@@H](C(C)C)NC(=O)[C@H](CC(C)C)NC(=O)[C@H](CC(C)C)N(C)C(=O)[C@H](Cc2ccccc2)NC1=O (cyclo(F[NMeL]L[dV]L))
inhibition of growth at 1 µM (HCT-116 [1]): 38%
inhibition of growth at 1 µM (HCT-15 [2]): 19%

CC(C)C[C@@H]1NC(=O)CN(C)C(=O)[C@H](Cc2ccccc2)NC(=O)[C@H](C(C)C)NC(=O)[C@@H](C(C)C)NC1=O (cyclo(F[Sar]L[dV]V))
inhibition of growth at 1 µM (HCT-116 [1]): 20%
inhibition of growth at 1 µM (HCT-15 [2]): 18%

CC(C)C[C@@H]1NC(=O)[C@@H](CC(C)C)NC(=O)[C@H](Cc2ccccc2)NC(=O)[C@H](CC(C)C)NC(=O)[C@@H](C(C)C)NC1=O (cyclo(F[dL]L[dV]L))
inhibition of growth at 1 µM (HCT-116 [1]): 16%
inhibition of growth at 1 µM (HCT-15 [2]): 20%

CC(C)C[C@@H]1NC(=O)[C@H](C(C)C)NC(=O)[C@@H](CC(C)C)NC(=O)[C@@H](CC(C)C)NC(=O)[C@H](Cc2ccccc2)NC1=O (cyclo(F[dL][dL]VL))
inhibition of growth at 1 µM (HCT-116 [1]): 28%
inhibition of growth at 1 µM (HCT-15 [2]): 40%

CC(C)C[C@@H]1NC(=O)[C@H](CC(C)C)NC(=O)[C@@H](Cc2ccccc2)NC(=O)[C@H](CC(C)C)NC(=O)[C@H](C(C)C)NC1=O (cyclo(LLVL[dF]))
inhibition of growth at 1 µM (HCT-116 [1]): 30%
inhibition of growth at 1 µM (HCT-15 [2]): 26%

CC(C)C[C@@H]1NC(=O)[C@H](CC(C)C)NC(=O)[C@@H](Cc2c[nH]c3ccccc23)NC(=O)[C@H](CC(C)C)NC(=O)[C@H](C(C)C)NC1=O (cyclo(LLVL[dW]))
inhibition of growth at 1 µM (HCT-116 [1]): 2%
inhibition of growth at 1 µM (HCT-15 [2]): 9%

CC(C)C[C@@H]1NC(=O)[C@H](CC(C)C)NC(=O)[C@@H](Cc2ccc(O)cc2)NC(=O)[C@H](CC(C)C)NC(=O)[C@H](C(C)C)NC1=O (cyclo(LLVL[dY]))
inhibition of growth at 1 µM (HCT-116 [1]): 45%
IC50 [4]: 200 µM
inhibition of growth at 1 µM (HCT-15 [2]): 60%

CC(C)C[C@@H]1NC(=O)[C@H](Cc2ccc(O)cc2)NC(=O)[C@H](CC(C)C)N(C)C(=O)[C@H](C(C)C)NC(=O)[C@H](CC(C)C)NC1=O (cyclo(LLV[NMeL]Y))
inhibition of growth at 1 µM (HCT-116 [1]): 20%
inhibition of growth at 1 µM (HCT-15 [2]): 3%

CC(C)C[C@@H]1NC(=O)[C@H](Cc2ccccc2)NC(=O)[C@H](CC(C)C)NC(=O)[C@@H](C(C)C)N(C)C(=O)[C@H](CC2CCCCC2)NC1=O (cyclo([Cha][dNMeV]LFL))
inhibition of growth at 1 µM (HCT-116 [1]): 48%
IC50 [4]: 16 µM
IC50 (HCT-116 [5]): 2 µM
inhibition of growth at 1 µM (HCT-15 [2]): 60%

CC(C)C[C@@H]1NC(=O)[C@H](CC(C)C)NC(=O)[C@H](Cc2ccccc2)N(C)C(=O)[C@H](CC(C)C)NC(=O)[C@H](C(C)C)NC1=O (cyclo([NMeF]LLVL))
inhibition of growth at 1 µM (HCT-116 [1]): 2%
inhibition of growth at 1 µM (HCT-15 [2]): 18%

CC(C)C[C@@H]1NC(=O)[C@H](C(C)C)NC(=O)[C@H](CC(C)C)NC(=O)[C@@H](CC(C)C)N(C)C(=O)[C@H](Cc2ccccc2)NC1=O (cyclo([dNMeL]LVLF))
inhibition of growth at 1 µM (HCT-116 [1]): 45%
inhibition of growth at 1 µM (HCT-15 [2]): 10%

O=c1[nH]cc(F)c(=O)[nH]1 [FLUOROURACIL]
IC50 (HCT-15 [3]): 300 µM
IC50 [4]: 300 µM
IC50 (HCT-116 [5]): 300 µM
